Data as given in patent US20210052741A1, “GENE THERAPY METHODS AND COMPOSITIONS USING AUXOTROPHIC REGULATABLE CELLS” (AUXOLYTIC LTD, priority 2018, published 2021).
Several values for one entry are separate records, joined by “and”; a condition that tells them apart may be missing. Identical values can stand only once.

Experiments:
Assay type in all cases: cell-based, human
[1] = system: UMPS^KO/KO T cells mixed with wild-type T cells; test: 5-FOA selection in mixed T cell population
Source text: To evaluate the possibility to select for UMPS^KO/KO cells with 5-FOA, the sorted cells were mixed with wild-type cells, which were labeled with different tracking dyes, and cultured in the presence or absence of 5-FOA. In part of the samples, 5-FOA was only added on the first day (Day 0) while in another group it was supplemented daily. Table 30 and FIG. 7C show the percent (%) of the UMPS-KO T cells (labelled with eFluor670) over time when culturing with or without 5-FOA.
In fact, FACS analysis of a culture of a mixed population of UMPS knockout and wild-type T cells with 5-FOA. UMPS-KO T cells were labeled with eFluor670, and wild-type cells were labeled with carboxyfluorescein succinimidyl ester (CFSE). […] On Day 0 in the control group not treated with 5-FOA, 47.7% of the cells were UMPS-KO T cells, and 52.1% were wild-type cells. On Day 3 in the group with 5-FOA supplemented daily, 74.0% of the cells were UMPS-KO T cells, while 25.8% were wild-type cells. On Day 3 in the control group not treated with 5-FOA, 43.1% of the cells were UMPS-KO T cells, and 56.4% were wild-type cells.

UMPS edited T cells = test: TIDE analysis of UMPS InDels in mixed UMPS edited population
Description: Sanger sequencing of the UMPS locus was performed using UMPS-O-1 and UMPS-O-2, with the region amplified using PHUSION™ Hot Start Flex 2x Master Mix (New England Biolabs, Inc.). Sanger sequencing traces were analyzed by TIDE analysis (see, Brinkman et al, 2014, Nucleic Acids Res. 42(22):e168), which is hereby incorporated by reference in its entirety) to identify insertions and deletions (InDels) after editing. InDel quantification was performed on the sequences using the TIDE online tool (www.deskgen.com/landing/tide.html) (See, M. Sadelain, N. Engl. J. Med. 365, 1735-7 (2011), which is hereby incorporated by reference in its entirety.
T Cells were electroporated and edited as in Example 2 and allowed to recover for a 4-day period in medium with serum, uridine, and UMP. On day 4, cells were shifted to UMP, uridine, or uracil source media. […]
To confirm the results on the genomic level, genomic DNA was harvested at the end of the experiment and InDels were quantified (FIG. 5D-FIG. 5E). FIG. 5D compares the frequency of InDels in different culture conditions for cells not exposed to 5-FOA.

UMPS-WT Nalm6 cells = test: Growth curves of Nalm6 cells with uridine; details: for Cell counts, Day 0 / Cell counts, Day 1 / Cell counts, Day 2 / Cell counts, Day 3 / Cell counts, Day 4 / Cell counts, Day 5 / Cell counts, Day 6 / Cell counts, Day 7: UMPS-WT
Description: (§1) The same experiment was performed with Nalm6 cells and a similar dependency on the uridine concentration in the culture was observed that was not visible for cells with intact UMPS. Table 25 provides data of growth curves of UMPS^KO/KO Nalm6 cells cultured with different uridine concentrations. No difference was observed between the groups receiving uridine supplement treatment and those not for wild-type cells.

UMPS^KO/KO Nalm6 cells = test: Growth curves of Nalm6 cells with uridine; details: for Cell counts, Day 0 / Cell counts, Day 1 / Cell counts, Day 2 / Cell counts, Day 3 / Cell counts, Day 4 / Cell counts, Day 5 / Cell counts, Day 6 / Cell counts, Day 7: UMPS^KO/KO
Description: as §1

[2] = cells not exposed to 5-FOA, end of experiment, metabolite 250 μg/ml

SMILES: O=C(O)c1[nH]c(=O)[nH]c(=O)c1F [5-FOA, 5-fluoroorotic acid]
- Percent of UMPS^KO/KO cells in mixed cell population, Day 0 ([1]; 5-FOA Day 0 only): 43.7% and 43.2%
- Percent of UMPS^KO/KO cells in mixed cell population, Day 1 ([1]; 5-FOA Day 0 only): 59.2% and 55.6% and 50.8%
- Percent of UMPS^KO/KO cells in mixed cell population, Day 3 ([1]; 5-FOA Day 0 only): 67.2% and 68.6% and 67.8%
- Percent of UMPS^KO/KO cells in mixed cell population, Day 0 ([1]; 5-FOA daily): 43.2%
- Percent of UMPS^KO/KO cells in mixed cell population, Day 1 ([1]; 5-FOA daily): 58.5% and 55.4% and 54.5%
- Percent of UMPS^KO/KO cells in mixed cell population, Day 3 ([1]; 5-FOA daily): 70.7% and 69.2%
- percent wild-type cells in mixed population, Day 0 ([1]; 5-FOA only on the first day (Day 0), FACS): 56.0%
- percent wild-type cells in mixed population, Day 3 ([1]; 5-FOA supplemented daily, FACS): 25.8%
- percent of UMPS-KO T cells, treated vs untreated group ([1]; unpaired t test): significant increase in the percent of UMPS-KO T cells

SMILES: O=c1ccn([C@@H]2O[C@H](CO)[C@@H](O)[C@H]2O)c(=O)[nH]1 [Uridine]
- Alleles with frameshift InDels, Percent of alleles (without 5-FOA) (UMPS edited T cells; TIDE, day 8, metabolite 250 μg/ml): 52.5%
- Alleles with InDels, Percent of alleles (without 5-FOA) (UMPS edited T cells; TIDE, metabolite 250 μg/ml): 77.0%
- frameshift InDel frequency, Percent (UMPS edited T cells; [2]): 52.5%
- overall InDel frequency, Percent (%) (UMPS edited T cells; [2]): 77.0%
- Predicted viable cell counts, Cells with In-frame InDel (UMPS edited T cells; day 8, metabolite 250 μg/ml): 777000
- Predicted viable cell counts, Cells with frameshift InDel (UMPS edited T cells; day 8, metabolite 250 μg/ml): 1660000
- Predicted viable cell counts, Cells without InDel (UMPS edited T cells; day 8, metabolite 250 μg/ml): 729100
- Cell counts, Day 0 (UMPS-WT Nalm6 cells; 2.5 ug/ml uridine): 20052 and 19661 and 21142
- Cell counts, Day 1 (UMPS-WT Nalm6 cells; 2.5 ug/ml uridine): 35088 and 34130 and 28986
- Cell counts, Day 2 (UMPS-WT Nalm6 cells; 2.5 ug/ml uridine): 67340 and 38314 and 62598
- Cell counts, Day 3 (UMPS-WT Nalm6 cells; 2.5 ug/ml uridine): 156019 and 153257 and 137812
- Cell counts, Day 4 (UMPS-WT Nalm6 cells; 2.5 ug/ml uridine): 244368 and 225750 and 338624
- Cell counts, Day 5 (UMPS-WT Nalm6 cells; 2.5 ug/ml uridine): 923391 and 1119256 and 1148582
- Cell counts, Day 6 (UMPS-WT Nalm6 cells; 2.5 ug/ml uridine): 2017336 and 3269476
- Cell counts, Day 7 (UMPS-WT Nalm6 cells; 2.5 ug/ml uridine): 3869992 and 6117085 and 6538953
- Cell counts, Day 0 (UMPS-WT Nalm6 cells; 25 μg/ml uridine): 27548 and 19505 and 36496
- Cell counts, Day 1 (UMPS-WT Nalm6 cells; 25 μg/ml uridine): 31847 and 39683 and 40000
- Cell counts, Day 2 (UMPS-WT Nalm6 cells; 25 μg/ml uridine): 70922 and 70175 and 68027
- Cell counts, Day 3 (UMPS-WT Nalm6 cells; 25 μg/ml uridine): 214190 and 194185 and 174292
- Cell counts, Day 4 (UMPS-WT Nalm6 cells; 25 μg/ml uridine): 447240 and 311891 and 376249
- Cell counts, Day 5 (UMPS-WT Nalm6 cells; 25 μg/ml uridine): 1413856 and 1173622 and 1216000
- Cell counts, Day 6 (UMPS-WT Nalm6 cells; 25 μg/ml uridine): 3792593 and 2708995
- Cell counts, Day 7 (UMPS-WT Nalm6 cells; 25 μg/ml uridine): 6320988 and 5746352 and 7585185
- Cell counts, Day 0 (UMPS-WT Nalm6 cells; 250 μg/ml uridine): 17980 and 24390
- Cell counts, Day 1 (UMPS-WT Nalm6 cells; 250 μg/ml uridine): 33784 and 40000
- Cell counts, Day 2 (UMPS-WT Nalm6 cells; 250 μg/ml uridine): 59524 and 58737
- Cell counts, Day 3 (UMPS-WT Nalm6 cells; 250 μg/ml uridine): 167715 and 160160
- Cell counts, Day 4 (UMPS-WT Nalm6 cells; 250 μg/ml uridine): 303894 and 213547
- Cell counts, Day 5 (UMPS-WT Nalm6 cells; 250 μg/ml uridine): 1163678 and 1115507
- Cell counts, Day 6 (UMPS-WT Nalm6 cells; 250 μg/ml uridine): 3511660 and 3058542
- Cell counts, Day 7 (UMPS-WT Nalm6 cells; 250 μg/ml uridine): 7293447
- growth with vs without uridine supplement (UMPS-WT Nalm6 cells; wild-type cells): No difference
- Cell counts, Day 0 (UMPS^KO/KO Nalm6 cells; 2.5 μg/ml uridine): 20121 and 29155 and 28090
- Cell counts, Day 1 (UMPS^KO/KO Nalm6 cells; 2.5 μg/ml uridine): 42194 and 38023 and 40650
- Cell counts, Day 2 (UMPS^KO/KO Nalm6 cells; 2.5 μg/ml uridine): 69808 and 88300 and 87146
- Cell counts, Day 3 (UMPS^KO/KO Nalm6 cells; 2.5 μg/ml uridine): 70287 and 70547 and 78663
- Cell counts, Day 4 (UMPS^KO/KO Nalm6 cells; 2.5 μg/ml uridine): 80625 and 81737 and 79012
- Cell counts, Day 5 (UMPS^KO/KO Nalm6 cells; 2.5 μg/ml uridine): 193482 and 188952 and 193913
- Cell counts, Day 6 (UMPS^KO/KO Nalm6 cells; 2.5 μg/ml uridine): 380782 and 383866 and 377748
- Cell counts, Day 7 (UMPS^KO/KO Nalm6 cells; 2.5 μg/ml uridine): 755497 and 796763 and 793429
- Cell counts, Day 0 (UMPS^KO/KO Nalm6 cells; 25 μg/ml uridine): 14984 and 18952 and 14400
- Cell counts, Day 1 (UMPS^KO/KO Nalm6 cells; 25 μg/ml uridine): 21277 and 25189 and 19688
- Cell counts, Day 2 (UMPS^KO/KO Nalm6 cells; 25 μg/ml uridine): 69085 and 68027 and 71301
- Cell counts, Day 3 (UMPS^KO/KO Nalm6 cells; 25 μg/ml uridine): 142944 and 176018 and 189125
- Cell counts, Day 4 (UMPS^KO/KO Nalm6 cells; 25 μg/ml uridine): 388585 and 324708 and 395062
- Cell counts, Day 5 (UMPS^KO/KO Nalm6 cells; 25 μg/ml uridine): 1624178 and 1360329
- Cell counts, Day 6 (UMPS^KO/KO Nalm6 cells; 25 μg/ml uridine): 3646724 and 3386243 and 3792593
- Cell counts, Day 7 (UMPS^KO/KO Nalm6 cells; 25 μg/ml uridine): 7293447 and 5746352 and 6538953
- Cell counts, Day 0 (UMPS^KO/KO Nalm6 cells; 250 μg/ml uridine): 20704 and 24510 and 29762
- Cell counts, Day 1 (UMPS^KO/KO Nalm6 cells; 250 μg/ml uridine): 37175 and 35461 and 30769
- Cell counts, Day 2 (UMPS^KO/KO Nalm6 cells; 250 μg/ml uridine): 101781 and 106667 and 112045
- Cell counts, Day 3 (UMPS^KO/KO Nalm6 cells; 250 μg/ml uridine): 210805 and 265340 and 257649
- Cell counts, Day 4 (UMPS^KO/KO Nalm6 cells; 250 μg/ml uridine): 551249 and 564374
- Cell counts, Day 5 (UMPS^KO/KO Nalm6 cells; 250 μg/ml uridine): 2072099 and 2343280 and 1844675
- Cell counts, Day 6 (UMPS^KO/KO Nalm6 cells; 250 μg/ml uridine): 3792593 and 4514991 and 4122383
- Cell counts, Day 7 (UMPS^KO/KO Nalm6 cells; 250 μg/ml uridine): 7585185 and 6320988 and 7901235
- growth (UMPS^KO/KO Nalm6 cells; groups supplemented with uridine, especially 25 and 250 μg/ml): Significantly greater growth
